# Entries after “also recorded” stand apart in the source; their conditions may differ. Where two headings read alike, the source gives them in different places.
# Experiments:
# [1] = test system: transgenic Drosophila engineered to express the mutant huntingtin protein in all their neurons; settings: historical positive control; cited from earlier work
# [2] = test system: wildtype Drosophila fruit flies; experiment: Toxicity of dimebon in wildtype Drosophila (eclosion number and timing); assay type: in vivo; settings: daily
# Method: Dimebon was evaluated for toxicity levels in wildtype Drosophila fruit flies as described in U.S. Provisional Patent Application No. 60/723,403. Dimebon was administered daily at doses ranging from 10 μM to 1 mM to explore its toxicity. An untreated control group was also studied in this experiment. The concentrations given were concentrations of dimebon in the food that animals drink/eat ad libitum. The food consisted of cornmeal, dextrose, yeast and agar.
# About 500 wild type Drosophila eggs were collected on grape juice plates, washed with distilled water and transferred 100 per vial to grow at 25 degrees C. The adult progeny were scored after eclosing (emerging from the pupal case) beginning 10 days later. The criteria used for toxicity were the number (%) of animals that eclose and the time of the eclosing. For example, fewer animals may emerge from the pupal case if a drug is toxic or the same number of animals may eclose but more slowly than the untreated control group.
# [3] = test system: G93AmSOD mice; experiment: G93AmSOD transgenic mouse treatment model (time to stage 2 / stage 1 disease); assay type: in vivo
# Method: For this study, G93AmSOD mice were randomized into 4 treatment groups. Mice were weaned and raised on a normal diet for 85 days. Beginning at approximately day 80 or earlier if noted clinically, animals underwent daily assessment for hind limb weakness (time to stage 3 disease). In general, this occurred within a week of day 85. At 85 days, mice were given dimebon in the drinking water at the following concentrations: vehicle control (0 mg/kg/day), low dose (3 mg/kg/day), medium dose (10 mg/kg/day), and high dose (30 mg/kg/day). The drinking water was changed every 3-4 days, and each cage held approximately 3-5 animals.
# Animals were weighed and analyzed daily to assess their strength and function. The day during which hind limb paralysis occurred was recorded (progression to stage 2 disease). Also recorded was the day at which the animals could no longer right themselves after 30 seconds (progression to stage 1 disease—a surrogate for mortality). Upon reaching stage 1 disease, animals were euthanized. […] When animals were no longer able to reliably reach the drinking water, they were given their daily mg/kg dose by intraperitoneal injection. Analyses were performed to compare the groups in terms of time to reach stage 2 and time to reach stage 1. As described further below, a Cox proportional hazards model including the effect of treatment group was fit.
# (§1) A Cox proportional hazards regression model including the effect of treatment group was fit for the time to stage 2 for both sexes combined. In addition to testing the null hypothesis of no difference among the four groups, pair wise comparisons of each of the treated groups to the control group were tested. The model was fit using the SAS PHREG procedure. The same type of model was then fit to the data for each sex separately.
# as §1, with “1” for “2”
# [4] = test system: primary chick neurons; experiment: 2% growth factor withdrawal (low serum) assay, MTT viability; assay type: cell-based, chicken
# Method: (§2) Cells: Lohman Brown chicken embryo hybrids were used for the assay. One-day-old fertilised eggs were purchased from a local chicken breeder (Schropper Geflügel GmbH, Austria) and stored in the lab under appropriate conditions (12° C. and 80% humidity). At embryonic day 0 eggs were transferred into a breeding incubator and stored under permanent turning until embryonic day 8 at 37.8° C. and 55% humidity. Approximately five to six chicken embryos were used for isolation of neurons per experiment.
# (§3) Eggs were wiped with 70% ethanol and cracked with large forceps at the blunt end. After decapitation of the embryo, the tissue covering the telencephalon was removed and hemispheres collected. After removing any loose tissue and remaining meningeal membranes, hemispheres were transferred into a dish containing nutrition medium. The tissue was dissociated mechanically by using a 1 ml pipette and by squeezing 3 times through a sterile nylon sieve with a pore size of 100 μm.
# (§4) Poly-D-Lysine coated 96-well microtiter plates (Biocoat) were used to culture the cells. Culture medium (160 μl) containing 3×10^5 cells/ml nutrition medium (48 000 cells/well) were added to each well of a microtiter plate Plates were kept at 37° C., 95% humidity and 5% CO2 without change of media. Neurons begin to extend processes after a few hours in culture.
# Low Serum Culture Conditions: The low serum medium used for the 2% growth factor withdrawal experiments described here includes EMEM with 1 g glucose/l and 2% FCS. The control medium includes DMEM with 4.5 g glucose/l and 5% Nu Serum. […]
# Dimebon was applied to the cells on day 1 for the whole experimental period of 8 days. Viability of cells was determined with the MTT assay using a plate-reader (570 nM). […] Since this reaction is catalysed in living cells only the assay can be used for the quantification of cell viability. […] To estimate optical density a plate-reader (Anthos HT II) was used at wavelength 570 nM. […]
# [5] = test system: transgenic Drosophila engineered to express the mutant huntingtin protein in all their neurons; experiment: Inhibition of mutant huntingtin-induced neurodegeneration of photoreceptor neurons in Drosophila eyes (pseudopupil method); assay type: in vivo; settings: 7 days
# Method: Dimebon was administered to one group of transgenic Drosophila engineered to express the mutant huntingtin protein in all their neurons as described in U.S. Provisional Patent Application No. 60/723,403. This was accomplished by cloning a foreign gene into transposable p-element DNA vectors under control of a yeast upstream activator sequence that was activated by the yeast GAL4 transcription factor. These promoter fusions were injected into fly embryos to produce transgenic animals. The foreign gene is silent until crossed to another transgenic strain of flies expressing the GAL4 gene in a tissue specific manner. The Elav>Gal4 which expresses the transgene in all neurons from birth until death was used in the experiments described. The two types of transgenic animals were crossed in order to collect enough closely matched aged controls to study. The crossed aged-matched adults (−20 per dosing group) were placed on drug containing food for 7 days. Animals were transferred to fresh food daily to minimize any effects caused by instability of the compounds. Survival was scored daily. At day 7, animals were sacrificed and the number of photoreceptor neurons surviving was counted.
# [6] = test system: primary chick neurons; experiment: 2% growth factor withdrawal (low serum) assay, AM-Calcein; assay type: cell-based, chicken; settings: p<0.01, 8 days
# Method: as §2, §3
# as §4, with “culture. […]” for “culture.”
# [7] = 3 mg/kg/day versus vehicle, both sexes combined
# [8] = 3 mg/kg/day versus vehicle, females
# [9] = 3 mg/kg/day versus vehicle, males
# [10] = 3 mg/kg/day, both sexes combined
# [11] = 10 mg/kg/day versus vehicle, both sexes combined
# [12] = 10 mg/kg/day versus vehicle, females
# [13] = 10 mg/kg/day versus vehicle, males
# [14] = 10 mg/kg/day, both sexes combined
# [15] = 30 mg/kg/day versus vehicle, both sexes combined
# [16] = 30 mg/kg/day versus vehicle, females
# [17] = 30 mg/kg/day versus vehicle, males
# [18] = 30 mg/kg/day, both sexes combined
smiles,measurement,setting,value
C[C@@H](N)[C@H]1CC[C@H](C(=O)Nc2ccncc2)CC1 [Y-27632],rescue of photoreceptor neurons,[1],strongly rescuing
"Cc1ccc2c(c1)c1c(n2CCc2ccc(C)nc2)CCN(C)C1.Cl.Cl [dimebon, 2,8-dimethyl-5-(2-(6-methyl-3-pyridyl)-ethyl)-2,3,4,5-tetrahydro-1H-pyrido(4,3-b)indol dihydrochloride]",% of animals eclosing,[2]; 1 mM in food,decrease
same,timing of emergence slowed,[2]; 1 mM in food,approximately 1 day
same,toxicity (% of animals that eclose and time of eclosing),"[2]; doses below 1 mM in food, dihydrochloride",no significant toxicity; also recorded: did not show significant toxicity
same,Time to Stage 1: hazard ratio (Cox proportional hazards),[3]; [7],1.112
same,Time to Stage 2: hazard ratio (Cox proportional hazards),[3]; [7],0.969
same,Time to Stage 1: hazard ratio (Cox proportional hazards),[3]; [8],1.089
same,Time to Stage 2: hazard ratio (Cox proportional hazards),[3]; [8],0.882
same,Time to Stage 1: hazard ratio (Cox proportional hazards),[3]; [9],0.967
same,Time to Stage 2: hazard ratio (Cox proportional hazards),[3]; [9],0.984
same,Mean Time to Stage 1 (Expressed as a Percentage of the Mean in the Vehicle Group),[3]; [10],98.8%
same,Mean Time to Stage 2 (Expressed as a Percentage of the Mean in the Vehicle Group),[3]; [10],99.8%
same,Mean Time to Stage 1 (Expressed as a Percentage of the Mean in the Vehicle Group),"[3]; 3 mg/kg/day, females",97.4%
same,Mean Time to Stage 2 (Expressed as a Percentage of the Mean in the Vehicle Group),"[3]; 3 mg/kg/day, females",100.2%
same,Mean Time to Stage 1 (Expressed as a Percentage of the Mean in the Vehicle Group),"[3]; 3 mg/kg/day, males",100.2%
same,Mean Time to Stage 2 (Expressed as a Percentage of the Mean in the Vehicle Group),"[3]; 3 mg/kg/day, males",99.4%
same,Time to Stage 1: hazard ratio (Cox proportional hazards),[3]; [11],0.738
same,Time to Stage 2: hazard ratio (Cox proportional hazards),[3]; [11],0.652
same,Time to Stage 1: hazard ratio (Cox proportional hazards),[3]; [12],0.855
same,Time to Stage 2: hazard ratio (Cox proportional hazards),[3]; [12],0.659
same,Time to Stage 1: hazard ratio (Cox proportional hazards),[3]; [13],0.524
same,Time to Stage 2: hazard ratio (Cox proportional hazards),[3]; [13],0.545
same,Mean Time to Stage 1 (Expressed as a Percentage of the Mean in the Vehicle Group),[3]; [14],103.3%
same,Mean Time to Stage 2 (Expressed as a Percentage of the Mean in the Vehicle Group),[3]; [14],104.9%
same,Mean Time to Stage 1 (Expressed as a Percentage of the Mean in the Vehicle Group),"[3]; 10 mg/kg/day, females",102.3%
same,Mean Time to Stage 2 (Expressed as a Percentage of the Mean in the Vehicle Group),"[3]; 10 mg/kg/day, females",104.9%
same,Mean Time to Stage 1 (Expressed as a Percentage of the Mean in the Vehicle Group),"[3]; 10 mg/kg/day, males",104.2%
same,Mean Time to Stage 2 (Expressed as a Percentage of the Mean in the Vehicle Group),"[3]; 10 mg/kg/day, males",104.9%
same,Time to Stage 1: hazard ratio (Cox proportional hazards),[3]; [15],0.505
same,Time to Stage 2: hazard ratio (Cox proportional hazards),[3]; [15],0.522
same,Time to Stage 1: hazard ratio (Cox proportional hazards),[3]; [16],0.314
same,Time to Stage 2: hazard ratio (Cox proportional hazards),[3]; [16],0.359
same,Time to Stage 1: hazard ratio (Cox proportional hazards),[3]; [17],0.647
same,Time to Stage 2: hazard ratio (Cox proportional hazards),[3]; [17],0.698
same,Mean Time to Stage 1 (Expressed as a Percentage of the Mean in the Vehicle Group),[3]; [18],104.7%
same,Mean Time to Stage 2 (Expressed as a Percentage of the Mean in the Vehicle Group),[3]; [18],104.8%
same,Mean Time to Stage 1 (Expressed as a Percentage of the Mean in the Vehicle Group),"[3]; 30 mg/kg/day, females",107.0%
same,Mean Time to Stage 2 (Expressed as a Percentage of the Mean in the Vehicle Group),"[3]; 30 mg/kg/day, females",107.7%
same,Mean Time to Stage 1 (Expressed as a Percentage of the Mean in the Vehicle Group),"[3]; 30 mg/kg/day, males",102.4%
same,Mean Time to Stage 2 (Expressed as a Percentage of the Mean in the Vehicle Group),"[3]; 30 mg/kg/day, males",101.8%
same,Emax at 6.25 µM,"[4]; Gallus gallus, Neuron, 192 h, 6250 nM, 8 days, read-out: maximum effect in the MTT assay, above control",~287%
same,Dimebon concentrations at which statistically significant differences compared to control were achieved,"[4]; MTT, p<0.05, 8 days",≥ 1250 nM
same,effect in the MTT assay,[4]; highest tested concentration 31250 nM,less than what was achieved at a concentration of 6250 nM
same,rescue of photoreceptor neurons,[5]; 10 μM in food,lesser but still apparent rescue of neurons
same,rescue of photoreceptor neurons compared to untreated controls,[5]; 100 μM in food,statistically significant (p=0.0014) rescue of neurons
same,rescue of photoreceptor neurons,[5]; 1 mM in food,"still appeared to cause neuronal rescue, but to a lesser extent"
same,Dimebon concentrations at which statistically significant differences compared to control were achieved,[6],≥ 1250 nM

# Source: patent US20100099700A1, “HYDROGENATED PYRIDO (4,3-B) INDOLES FOR TREATING AMYOTROPHIC LATERAL SCLEROSIS (ALS)” (priority 2006, published 2010)
